Test results published in US20240309015A1, “Methods for the Treatment of Fibrotic Disease” (SHY Therapeutics, LLC, priority 2021, published 2024).

Tests used:
[1] = tested on: KRas wild type; assay: Ras GTP Binding Domain Inhibition Assay, KRas wild type; conditions: at 20 μM; for KRas wild type + SOS: % inh.: with SOS; for KRas wild type: % inh.: without SOS
Method: (§1) A Ras Superfamily Activity Assay (as disclosed in International Application No. PCT/US2018/038613, filed Jun. 20, 2018, which is incorporated by reference in its entirety) was used as a specific assay to evaluate compounds against the following for the following Ras Superfamily proteins: KRas wild type, KRas Q61H mutant, KRas G12C mutant, KRas G12D mutant, Rac-1, and Rho-A.
(§2) Buffer-I: • 25 mM Tris-HCl, pH 7.4 • 27 mM KCl • 137 mM NaCl • 1 mM MgCl2 • 1 mM DTT
(§3) Buffer-IL: • 50 mM Tris-HCl, pH 7.0 • 1 mM MgCl2 • 1 mM DTT
(§4) The small GTPases proteins: KRas wild type. KRas Q61H mutant, KRas G12C mutant, KRas G12D mutants, Rac-1, and Rho-A were expressed as His-tagged proteins. In addition, the Guanosine nucleotide Exchange Factor (GEF) Sos protein (residues 556-1049) was expressed as a His-tagged protein. In cells, the guanine nucleotide exchange factor Sos protein promotes activation of Ras proteins by stimulating an exchange of GDP for GTP. The inclusion of Sos to the Ras GTP binding domain inhibition assay may be considered as an alternative representation of physiological cellular conditions for evaluating the inhibitory activity of some of the tested small molecules.
(§5) For the assay, all purified small GTPases proteins were diluted in Buffer-I or Buffer-II to a final concentration of 10-30 μg/mL. 200 μL of each diluted protein was added to a nickel-coated 96-well plate and incubated overnight at 4° C. Then the protein solution was discarded and 200 μL of Buffer-I or Buffer-II was added to each well in the presence of 1% DMSO. Compounds to be tested were added to the protein-coated wells at final concentration of 20 μM, and incubated for 3 hours at room temperature with and without 10-30 μg/mL of Sos added to the final hour of the incubation. When performing IC50 measurements a serial dilution of all tested concentrations was added. Then Cy3-GTP or Cy5-GTP was added to each well to a final concentration of 100 nM. The labeled GTP was incubated for 45 minutes at room temperature. Following GTP incubation, wells were washed 3× in Buffer-I or Buffer-II and 200 μL of Buffer-I or Buffer-II was added to each well. Following washes, the amount of bound labeled-GTP was measured using a SpectraMax M3 (Molecular Devices).

[2] = tested on: Rho-A; assay: Ras GTP Binding Domain Inhibition Assay, Rho-A; conditions: at 20 μM; for Rho-A + SOS: % inh.: with SOS; for Rho-A: % inh.: without SOS
Method: as §1, §2, §3, §4, §5

[3] = tested on: KRas G12C mutant; assay: Ras GTP Binding Domain Inhibition Assay, KRas G12C mutant; conditions: at 20 μM; for KRas G12C mutant + SOS: % inh.: with SOS; for KRas G12C mutant: % inh.: without SOS
Method: as §1, §2, §3, §4, §5

[4] = tested on: KRas G12D mutant; assay: Ras GTP Binding Domain Inhibition Assay, KRas G12D mutant; conditions: at 20 μM; for KRas G12D mutant + SOS: % inh.: with SOS; for KRas G12D mutant: % inh.: without SOS
Method: as §1, §2, §3, §4, §5

Row | KRas wild type + SOS: % inh. [1] | KRas wild type: % inh. [1] | Rho-A + SOS: % inh. [2] | Rho-A: % inh. [2] | KRas G12C mutant + SOS: % inh. [3] | KRas G12C mutant: % inh. [3] | KRas G12D mutant + SOS: % inh. ([4]; Table 7) | KRas G12D mutant + SOS: % inh. ([4]; Table 8) | KRas G12D mutant: % inh. ([4]; Table 7) | KRas G12D mutant: % inh. ([4]; Table 8) | Structure (SMILES)
1 | C (C = 46-75% inhibition) | C (C = 46-75% inhibition) | D (D = 76-100% inhibition) | D (D = 76-100% inhibition) | C (C = 46-75% inhibition) | D (D = 76-100% inhibition) | C (C = 46-75% inhibition) | C (C = 46-75% inhibition) | D (D = 76-100% inhibition) | D (D = 76-100% inhibition) | COc1cccc(-c2sc3nc(-c4nccn4C)nc(NC4CCC(OC)C4)c3c2C)c1F (racemic) [Compound 10, rac-6-(2-Fluoro-3-methoxyphenyl)-N-((1R,3S)-3-methoxycyclopentyl)-5-methyl-2-(1-methyl-1H-imidazol-2-yl)thieno[2,3-d]pyrimidin-4-amine and rac-6-(2-Fluoro-3-methoxyphenyl)-N-((1R,3R)-3-methoxycyclopentyl)-5-methyl-2-(1-methyl-1H-imidazol-2-yl)thieno[2,3-d]pyrimidin-4-amine]
2 | D (D = 76-100% inhibition) | D (D = 76-100% inhibition) | D (D = 76-100% inhibition) | D (D = 76-100% inhibition) | D (D = 76-100% inhibition) | C (C = 46-75% inhibition) | C (C = 46-75% inhibition) | C (C = 46-75% inhibition) | C (C = 46-75% inhibition) | C (C = 46-75% inhibition) | CO[C@H]1CC[C@@H](Nc2nc(-c3nccn3C)nc3sc(-c4ccn(C(C)C)n4)c(C)c23)C1 (racemic) [Compound 12, rac-6-(1-Isopropyl-1H-pyrazol-3-yl)-N-((1R,3S)-3-methoxycyclopentyl)-5-methyl-2-(1-methyl-1H-imidazol-2-yl)thieno[2,3-d]pyrimidin-4-amine]

Second part, the molecule before the results:

Row | Structure (SMILES) | KRas wild type + SOS: % inh. [1] | KRas wild type: % inh. [1] | Rho-A + SOS: % inh. [2] | Rho-A: % inh. [2] | KRas G12C mutant + SOS: % inh. [3] | KRas G12C mutant: % inh. [3] | KRas G12D mutant + SOS: % inh. ([4]; Table 7) | KRas G12D mutant + SOS: % inh. ([4]; Table 8) | KRas G12D mutant: % inh. ([4]; Table 7) | KRas G12D mutant: % inh. ([4]; Table 8)
3 | COCCNc1nc(-c2nccn2C)nc2sc(-c3ccccc3)c(-c3ccccc3)c12 [Compound 1, N-(2-Methoxyethyl)-2-(1-methyl-1H-imidazol-2-yl)-5,6-diphenylthieno[2,3-d]pyrimidin-4-amine] | A (A = 1-25% inhibition) | A (A = 1-25% inhibition) | – | C (C = 46-75% inhibition) | – | C (C = 46-75% inhibition) | A (A = 1-25% inhibition) | A (A = 1-25% inhibition) | D (D = 76-100% inhibition) | D (D = 76-100% inhibition)
4 | COCCN(C)c1nc(-c2nccn2C)nc2sc(-c3ccccc3)c(-c3ccccc3)c12 [Compound 2, N-(2-Methoxyethyl)-N-methyl-2-(1-methyl-1H-imidazol-2-yl)-5,6-diphenylthieno[2,3-d]pyrimidin-4-amine] | – | C (C = 46-75% inhibition) | – | B (B = 26-45% inhibition) | – | B (B = 26-45% inhibition) | – | – | C (C = 46-75% inhibition) | C (C = 46-75% inhibition)
5 | COCCCNc1nc(-c2nccn2C)nc2sc(-c3ccccc3)c(-c3ccccc3)c12 [Compound 3, N-(3-Methoxypropyl)-2-(1-methyl-1H-imidazol-2-yl)-5,6-diphenylthieno[2,3-d]pyrimidin-4-amine] | A (A = 1-25% inhibition) | C (C = 46-75% inhibition) | – | C (C = 46-75% inhibition) | – | C (C = 46-75% inhibition) | A (A = 1-25% inhibition) | A (A = 1-25% inhibition) | C (C = 46-75% inhibition) | C (C = 46-75% inhibition)
